From patent US7037891B2, “Methods of modulating G-protein-coupled receptor kinase-associated signal transduction” (Children's Medical Center Corporation, priority 1997, dated 2006)

Key:
[1] = Type II diabetes in sand rats: blood-glucose after i.p. injection; assay type: in vivo, sand rats (psamomys obesus); conditions: diabetic sand-rats
From the text: Sand-rats (psamomys) which are genetically prone to develop Type II diabetes were used in this study. The genetically selected sand-rats, 3 to 6 months old, were fed an energy-rich diet (Weizmann HE) for about 3 to 10 days until they became diabetic, as judged by their elevated blood-glucose level (see R. Kalman et al., “The Efficiency of Sand Rat Metabolism is Responsible for Development of Obesity and Diabetes”, J. of Basic & Clinical Physiology & Pharmacology (1993), vol. 4, no. 1–2, pp 57–68, the pertinent portions of which are incorporated herein by reference).
The diabetic sand-rats were injected i.p. once a week with a compound comprising GRK-derived peptide K024H107 (SEQ ID NO:10) at a dose of 10 mg/kg. The peptide was prepared by diluting a 10 mM solution of the peptide in 100% DMSO with phosphate buffered saline (PBS) containing 0.1% bovine serum albumin (BSA) to a concentration of 400 μM. […] of the 10 mM peptide in DMSO solution was mixed with 160 μl of 1.6M NH4HCO3 and heated for 40 minutes at 100° C. The resultant solution was then diluted to 400 μM in 2 M Hepes buffer (pH 7.0). This peptide stock solution was labeled “tbi”. The vehicle of the solution for injection included 8% DMSO, 0.67M ammonium bicarbonate, and 2M Hepes. Control animals received an i.p. injection of the vehicle only.

[2] = Reduction of weight and appetite of normal mice; assay type: in vivo; conditions: for change in body weight as compared to control / food consumption as compared to control: NDP-αMSH 0.9 μg/kg BW; for change in body weight as compared to control: KO24H107 21 mg/kg, or both (FIG. 7A); for food consumption as compared to control: KO24H107 21 mg/kg, or both (FIG. 7B)
Protocol: 18 Sabra male mice, 8 weeks old, were used and were divided into four groups as followed:
The animals were weighed before trial and periodically during the trial.
At the same time, food was weighted before it was introduced into cages and at the end of each tested period. From this point on, the follow-up included both weighing of the mice and of the food for the short period, every couple of hours, until night, and later on for the long period, each 24 hour cycle.
The results of FIG. 7A are shown as the percentage of change in body weight as compared to the initial weight for each mice, and then averaged for each group. The calculation of food consumption (FIG. 7B) was calculated in each group relative to the total weight of all animals (4 or 5 animals) and averaged separately for each group.
The above experiment was conducted again with another compound comprising a GRK-derived peptide KO24H112 (SEQ ID NO:5) 16 animals were used as follows: […]

[3] = tested on: C6 glioblastoma cells; assay: Intracellular cyclic AMP levels (EIA) after isoproterenol activation; assay type: cell-based
From the text: It is well known that after activation of the various GPCRs there is an activation of the adenolate cyclase by G-proteins. This raises the cyclic-AMP levels in the cell, and these levels are then decreased due to the desensitization of the receptors by GRK. Thus it is expected that inhibition of GAST will eliminate this decrease in the cyclic AMP levels, and will cause a constitutive increase in cAMP levels.
C6 glioblastoma cells, which are known to express the β-adrenagic receptor (the substrate of GRK). have been used.
To the cells the following compounds were added:
The amount of the activity was measured by measuring the increase of intracellular cyclic AMP levels, which were measured using the commercially available kit of Biotrack Cellular Communication Assay cyclic-AMP enzyme—immunoassay (EIA) system.

| Substance | animals that became normoglycemic already after the first injection (responders) ([1]; i.p. 10 mg/kg once a week) [animals] | rest of the treated animals (nonresponders): normoglycemia ([1]; i.p. 10 mg/kg once a week) | blood-glucose ([1]; i.p. 10 mg/kg, after a single injection, vs vehicle controls (FIG. 3, 4)) | change in body weight as compared to control ([2]; normal Sabra male mice) | food consumption as compared to control ([2]; normal Sabra male mice) | weight and food consumption effect compared among the three treated groups ([2]; normal Sabra male mice, compound alone 21 mg/kg vs NDP-αMSH and combination (FIG. 7A, 7B)) | cyclic AMP levels ([3]; 10 μM compound added first, 1 μM isoproterenol an hour later (FIG. 6)) | cyclic AMP level ([3]; order reversed: 1 μM isoproterenol first, 10 μM compound one hour later (FIG. 6)) | weight change ([2]; normal mice, 23.2 mg/kg and 31.5 mg/kg, vs vehicle (FIG. 8A)) | change in food consumption ([2]; normal mice, 23.2 mg/kg and 31.5 mg/kg, vs vehicle (FIG. 8B)) |
| --- | --- | --- | --- | --- | --- | --- | --- | --- | --- | --- |
| K024H107: GRK-derived peptide, SEQ ID NO.: 10 (LLRRHS; bARK1) | 4 | became nornoglycemic after three additional weekly injections | dramatic decrease in blood-glucose to the normal level | weight decrease | decrease in food consumption | strongest effect | rose significantly | hardly changed |  |  |
| KO24H112: GRK-derived peptide; SEQ ID NO.: 15 in b61, printed SEQ ID NO:5 in b230 (LLRRHSI; bARK1) |  |  |  |  |  |  |  |  | effective in reducing both body weight and consumption | effective in reducing both body weight and consumption |
| NDP-αMSH [reference compound] |  |  |  | weight decrease | decrease in food consumption |  |  |  |  |  |
